Reference: paper PMC11945486, “TAS1R2/TAS1R3 Single-Nucleotide Polymorphisms Affect Sweet Taste Receptor Activation by Sweeteners: The SWEET Project” (Nutrients, 2025)
Values belong to the molecule of their own block, whether it stands above or below them. No end group written: not given here.

Biological target: T1, human TAS1R2-S212G/TAS1R3-WT (Homo sapiens, UniProt Q7RTX0+Q8TE23, S212G)
T1 construct: expressed in transfected cells; host or cells: HEK293T-Gα16gust44
T1 sequence (Q8TE23 20-839 S212G): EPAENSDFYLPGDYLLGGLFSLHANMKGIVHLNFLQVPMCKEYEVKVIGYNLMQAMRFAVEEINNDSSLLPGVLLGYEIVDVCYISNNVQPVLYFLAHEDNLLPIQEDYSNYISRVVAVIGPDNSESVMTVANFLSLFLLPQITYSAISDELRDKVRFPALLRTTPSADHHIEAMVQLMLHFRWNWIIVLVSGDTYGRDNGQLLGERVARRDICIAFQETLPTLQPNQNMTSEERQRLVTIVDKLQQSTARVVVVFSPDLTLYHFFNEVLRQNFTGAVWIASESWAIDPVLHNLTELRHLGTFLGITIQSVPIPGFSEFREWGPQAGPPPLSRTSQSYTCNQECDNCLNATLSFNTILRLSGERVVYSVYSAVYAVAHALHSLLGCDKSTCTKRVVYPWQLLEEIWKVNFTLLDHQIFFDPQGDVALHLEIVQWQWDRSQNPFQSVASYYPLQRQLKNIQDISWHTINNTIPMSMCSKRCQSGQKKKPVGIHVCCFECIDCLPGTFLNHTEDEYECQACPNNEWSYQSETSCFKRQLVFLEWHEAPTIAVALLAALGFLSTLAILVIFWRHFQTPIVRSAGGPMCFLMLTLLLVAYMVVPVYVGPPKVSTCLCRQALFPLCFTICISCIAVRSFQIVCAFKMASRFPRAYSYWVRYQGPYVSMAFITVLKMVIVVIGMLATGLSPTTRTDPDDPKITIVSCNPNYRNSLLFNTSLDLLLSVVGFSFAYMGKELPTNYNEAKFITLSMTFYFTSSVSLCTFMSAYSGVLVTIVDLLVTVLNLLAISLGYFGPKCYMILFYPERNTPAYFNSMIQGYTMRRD
T1 sequence (Q7RTX0 21-852): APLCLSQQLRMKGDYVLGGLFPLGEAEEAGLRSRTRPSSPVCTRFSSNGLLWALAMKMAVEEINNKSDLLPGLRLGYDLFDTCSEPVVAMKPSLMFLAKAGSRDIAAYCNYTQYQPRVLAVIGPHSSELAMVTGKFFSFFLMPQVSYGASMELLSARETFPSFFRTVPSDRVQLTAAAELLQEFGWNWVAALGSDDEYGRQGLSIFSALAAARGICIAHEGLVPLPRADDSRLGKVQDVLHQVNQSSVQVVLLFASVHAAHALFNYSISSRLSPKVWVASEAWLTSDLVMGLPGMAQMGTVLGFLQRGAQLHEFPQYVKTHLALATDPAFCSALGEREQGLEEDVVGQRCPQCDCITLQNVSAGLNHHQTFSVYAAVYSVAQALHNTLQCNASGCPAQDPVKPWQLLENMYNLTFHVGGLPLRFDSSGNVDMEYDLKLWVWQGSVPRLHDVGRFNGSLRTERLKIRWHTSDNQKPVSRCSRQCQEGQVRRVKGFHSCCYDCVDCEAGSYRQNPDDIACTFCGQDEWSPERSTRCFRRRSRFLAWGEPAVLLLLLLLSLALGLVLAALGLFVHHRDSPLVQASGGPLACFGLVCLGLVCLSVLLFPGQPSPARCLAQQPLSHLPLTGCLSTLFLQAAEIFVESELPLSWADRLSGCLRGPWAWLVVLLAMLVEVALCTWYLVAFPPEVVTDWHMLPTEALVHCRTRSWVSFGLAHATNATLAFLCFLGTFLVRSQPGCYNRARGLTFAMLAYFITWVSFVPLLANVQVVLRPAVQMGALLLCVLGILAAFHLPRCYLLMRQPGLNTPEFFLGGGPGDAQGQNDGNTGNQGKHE
Assay: Calcium mobilisation assay, TAS1R2 variant S212G with TAS1R3-WT
Format: cell-based
Conditions: for Max ΔF/F0: maximal signal amplitude
Excerpt: The coding sequences for TAS1R2 and TAS1R3 were commercially synthesised, and the human codon was optimised for expression in human cells. The coding sequences of human TAS1R2 and TAS1R3 were subcloned and inserted into the mammalian expression vectors pcDNA6/myc-HisA and pcDNA4/myc-HisA (Invitrogen; Thermo Fisher Scientific; Illkirch, France) between the EcoRI and NotI restriction sites, generating the plasmids pcDNA6-TAS1R2 and pcDNA4-TAS1R3, respectively. To increase protein expression in mammalian cells, an upstream start codon was used, which was a sequence called MAX, corresponding to the QBI SP163 element also described in pcDNA4-HisMax (Invitrogen; Thermo Fisher Scientific; Illkirch, France). To measure the expression level of the receptor by immunohistochemistry, we used the FLAG sequence ([…]) in the C-terminal position, which encodes the FLAG tag epitope. SNP variants of TAS1R2 and TAS1R3 were constructed based on […], respectively, using site-directed mutagenesis (Genewiz; Leipzig, Germany).
The HEK293T cells were kindly provided by Jay P. Slack (Givaudan Flavors Corporation; Cincinnati, OH, USA). HEK293T cells stably transfected with Gα16gust44 [43, 67] were seeded in poly-D-lysine-coated clear-bottom black 96-well plates (0.35 × 10^5 cells/well) in high-glucose DMEM supplemented with 2 mM GlutaMAX, 10% dialysed foetal bovine serum with penicillin/streptomycin and G418 (400 μg/mL) at 37 °C and 6.3% CO2 in a humidified atmosphere as previously reported. […] As a negative control, HEK293T cells were mock-transfected with the empty expression vector. After a further 24 h of incubation, the HEK293T cells were washed with C1 buffer (130 mM NaCl, 5 mM KCl, 10 mM HEPES pH 7.4 and 2 mM CaCl2). The 96-well plates containing the cells were then stimulated with sweet-tasting compounds. […] Different concentration ranges were tested depending on the sweet compound injected. The Ca^2+ changes were expressed as fractional changes in fluorescent light intensity: ΔF/F = (F − F0)/F0, where F was the fluorescent light intensity at each point, and F0 was the value of emitted fluorescent light prior to stimulus application. To calculate dose–response relationships, the changes in fluorescence upon stimulus application were averaged, mock-subtracted and baseline-corrected. The dose–response data obtained were adjusted using a 4-parameter logistic equation. The half-maximal effective concentrations (EC50 values) and maximal signal amplitudes were calculated using SigmaPlot software (version 15.0) (Systat Software; San Jose, CA, USA).
For in vitro calcium mobilisation assay performed on hTAS1R2-SNPs, hTAS1R3-SNPs and mTAS1R3-I60T, 6 to 7 concentrations were tested for each sweet compound, plus buffer alone. All concentration–receptor combinations were measured in duplicate, and each experiment was repeated at least 4 times (8 wells/concentration). Results were expressed for each concentration as ΔF/F mean ± SEM and represented as dose–response curves.

- EC50: 23.2 ± 1.1 µM
- R1 = Variant EC50/WT EC50: 1.4
- Max ΔF/F0: 1.14 ± 0.02
Molecule: C=C1C[C@@]23CC[C@H]4[C@@](C)(CCC[C@@]4(C)C(=O)O[C@@H]4O[C@H](CO)[C@@H](O)[C@H](O[C@@H]5O[C@H](CO)[C@@H](O)[C@H](O)[C@H]5O)[C@H]4O[C@@H]4O[C@H](CO)[C@@H](O)[C@H](O)[C@H]4O)[C@@H]2CC[C@]1(O[C@@H]1O[C@H](CO)[C@@H](O)[C@H](O[C@@H]2O[C@H](CO)[C@@H](O)[C@H](O)[C@H]2O)[C@H]1O[C@@H]1O[C@H](CO)[C@@H](O)[C@H](O)[C@H]1O)C3 [Rebaudioside M, rebaudioside M]

- EC50: 96 ± 6 µM
- R1 = Variant EC50/WT EC50: 1.1
- Max ΔF/F0: 0.64 ± 0.02
Molecule: OC[C@H]1O[C@H](O[C@]2(CCl)O[C@H](CCl)[C@@H](O)[C@@H]2O)[C@H](O)[C@@H](O)[C@H]1Cl [Sucralose]

- R1 = Variant EC50/WT EC50: 1.4
- Max ΔF/F0: 1.18 ± 0.02
Molecule: brazzein (QDKCKKVYENYPVSKCQLANQCNYDCKLDKHARSGECFYDEKRNLQCICDYCEY; ends and bridges not checked; cysteine pairing not given here; UniProt P56552 1-54, looked up) [sweet-tasting protein obtained by recombinant production using the yeast Pichia pastoris]

- R1 = Variant EC50/WT EC50: 0.8
- Max ΔF/F0: 0.6 ± 0.01
Molecule: thaumatin

- EC50: 6.1 ± 0.2 µM
B1: thaumatin (protein)
chain: ATFEIVNRCSYTVWAAASKGDAALDAGGRQLNSGESWTINVEPGTKGGKIWARTDCYFDDSGSGICKTGDCGGLLRCKRFGRPPTTLAEFSLNQYGKDYIDISNIKGFNVPMDFSPTTRGCRGVRCAADIVGQCPAKLKAPGGGCNDACTVFQTSEYCCTTGKCGPTEYSRFFKRLCPDAFSYVLDKPTTVTCPGSSNYRVTFCPTA
modifications: Eight disulfides
notes: sweet-tasting plant protein, E957

The remaining lines, values behind:

Molecule: CC1=CC(=O)NS(=O)(=O)O1 [Acesulfame K, acesulfame K]
- EC50: 438 ± 25 µM
- R1 = Variant EC50/WT EC50: 0.6
- Max ΔF/F0: 0.28 ± 0.01

Molecule: O=S(=O)(O)NC1CCCCC1 [Cyclamate, cyclamate]
- EC50: 1770 ± 44 µM

Molecule: C[C@H](CC[C@@H](O[C@@H]1O[C@H](CO[C@@H]2O[C@H](CO)[C@@H](O)[C@H](O)[C@H]2O)[C@@H](O)[C@H](O)[C@H]1O[C@@H]1O[C@H](CO)[C@@H](O)[C@H](O)[C@H]1O)C(C)(C)O)[C@H]1CC[C@@]2(C)[C@@H]3CC=C4[C@@H](CC[C@H](O[C@@H]5O[C@H](CO[C@@H]6O[C@H](CO)[C@@H](O)[C@H](O)[C@H]6O)[C@@H](O)[C@H](O)[C@H]5O)C4(C)C)[C@]3(C)[C@H](O)C[C@]12C [Mogroside V, mogroside V]
- EC50: 21.2 ± 2.1 µM
- R1 = Variant EC50/WT EC50: 1.2
- Max ΔF/F0: 1.32 ± 0.05

Molecule: COc1ccc(CCC(=O)c2c(O)cc(O[C@@H]3O[C@H](CO)[C@@H](O)[C@H](O)[C@H]3O[C@@H]3O[C@@H](C)[C@H](O)[C@@H](O)[C@H]3O)cc2O)cc1O [NHDC, neohesperidin dihydrochalcone]
- EC50: 90.7 ± 8.1 µM
- R1 = Variant EC50/WT EC50: 1.2
- Max ΔF/F0: 0.84 ± 0.03

Molecule: COC(=O)[C@H](Cc1ccccc1)NC(=O)[C@H](CC(=O)O)NCCC(C)(C)C [Neotame]
- EC50: 0.99 ± 0.05 µM
- R1 = Variant EC50/WT EC50: 1.2
- Max ΔF/F0: 0.63 ± 0.01

Molecule: C=C(C)[C@@H]1CC=C(/C=N/O)CC1 [Perillartine, perillartine]
- EC50: 22.9 ± 0.6 µM
- R1 = Variant EC50/WT EC50: 1.3
- Max ΔF/F0: 1.30 ± 0.01
